The values that follow come from ChEMBL document CHEMBL4732189, “A facile synthesis of diaryl pyrroles led to the discovery of potent colchicine site antimitotic agents” (Eur J Med Chem, 2021).

Each structure is given as a SMILES string. pIC50: −log10 of the molar value.

The test system of assay [1] is HeLa. The experiment in a line: cells. To be noted: Homo sapiens, 72 h.
Description: Antiproliferative activity against human HeLa cells assessed as reduction in cell viability after 72 hrs by MTT assay
Assay [2] has as its system A549. The experiment in a line: cells. To be noted: Homo sapiens, A549, 72 h.
Description: Antiproliferative activity against human A549 cells assessed as reduction in cell viability after 72 hrs by MTT assay
Assay [3] concerns HT-29. Put plainly: cells. To be noted: Homo sapiens, HT-29, 72 h.
Assay [4] has as its system SEM cells. The experiment in a line: Antiproliferative activity against human SEM cells assessed as reduction in cell viability after 72 hrs by MTT assay. The format is functional, cell-based. (Formazan colour is commonly taken as a measure of viable cells.)
The subject of assay [5] is HL-60. The experiment in a line: Antiproliferative activity against human HL-60 cells assessed as reduction in cell viability after 72 hrs by MTT assay. The format is functional, cell-based. To be noted: HL-60, 72 h.
For assay [6], the system named is CCRF-CEM. The experiment in a line: Antiproliferative activity against human CCRF-CEM cells assessed as reduction in cell viability after 72 hrs by MTT assay. The format is functional, cell-based.
Assay [7] is filed under the species Bos taurus. Put plainly: Displacement of [3H]colchicine from bovine brain tubulin at 5 uM by DEAE-cellulose filter method relative to control. The class given is tissue-based. On the technique in general: Displacement assays read how much labelled ligand stays bound in the presence of the test substance.
Assay [8] can be described thus: Inhibition of bovine brain tubulin polymerization incubated for 15 mins followed by GTP addition and measured after 20 mins by spectrophotometric method. The format is tissue-based, Bos taurus.

For orientation: pIC50 means the IC50 on a negative log10 scale, so that one unit is a factor of ten. With `COc1cc(-n2cccc2-c2ccc(C)c(C)c2)cc(OC)c1OC`, the pIC50 in assay [1] was 5.48; in assay [2], under 5.00; in assay [3] it was 5.11; in assay [4], 6.12; in assay [5] it was 5.40; in assay [6] it was 5.49.

In general, inhibition refers to the change of the read-out against control, counted positive when it falls. High values mean a strong effect, low ones a weak effect. For `COc1cc(-c2cccn2-c2ccc(C)cc2)cc(OC)c1OC`, the pIC50 in assay [1] is 5.48; in assay [2] it was under 5.00; in assay [3] it was 5.28; in assay [4], 6.85; in assay [5], 6.20; in assay [8], 5.62. In assay [6], the pIC50 was 5.62. The same compound returned an inhibition in assay [7] of 55%.

For `CCc1ccc(-c2cccn2-c2cc(OC)c(OC)c(OC)c2)cc1`, the pIC50 in assay [1] was 5.00; in assay [2] it was under 5.00; in assay [3], 5.26; in assay [4], 6.51; in assay [5], 5.95; in assay [6], 5.52.

In the case of `COc1cc(-n2cccc2-c2ccc(SC)cc2)cc(OC)c1OC`, the pIC50 in assay [1] was under 5.00; in assay [2] it was under 5.00; in assay [3], under 5.00; in assay [4] it was 6.70; in assay [5] it was 6.09; in assay [6] it was 5.55.

For `COc1ccc(-c2c[nH]cc2-c2cc(OC)c(OC)c(OC)c2)cc1F`, the pIC50 in assay [1] is 7.48; in assay [2], 6.69; in assay [3] it was 7.32; in assay [4], 8.28; in assay [5], 7.47; in assay [6] it was 7.28.

Consider `CCSc1ccc(-c2c[nH]cc2-c2cc(OC)c(OC)c(OC)c2)cc1`, for which the pIC50 in assay [1] is 6.41; in assay [2], 6.47; in assay [3], 6.20; in assay [4] it was 6.32; in assay [5] it was 5.58; in assay [6] it was 5.51.

With `COc1cc(-n2cccc2-c2ccc3ccccc3c2)cc(OC)c1OC`, the pIC50 is 6.39 in assay [1]; 5.51 in assay [2]; 6.19 in assay [3]; 6.82 in assay [4]; 6.40 in assay [5]; 5.80 in assay [8]. For the same compound, in assay [6], the pIC50 was 5.88. The compound also had an inhibition in assay [7] of 74%.

With `CCCc1ccc(-c2cccn2-c2cc(OC)c(OC)c(OC)c2)cc1`, the pIC50 in assay [1] is under 5.00; in assay [2] it was under 5.00; in assay [3], under 5.00; in assay [4], under 5.00; in assay [5] it was under 5.00; in assay [6], 5.31.

Regarding `COc1ccc(-c2cccn2-c2cc(OC)c(OC)c(OC)c2)cc1C`, the pIC50 is 5.01 in assay [1]; under 5.00 in assay [2]; under 5.00 in assay [3]; 6.00 in assay [4]; 5.41 in assay [5]; 5.60 in assay [6].

In the case of `COc1ccc(-c2c[nH]cc2-c2cc(OC)c(OC)c(OC)c2)cc1`, the pIC50 in assay [1] was 7.55; in assay [2], 7.06; in assay [3], 7.51; in assay [4] it was 7.46; in assay [5], 6.59; in assay [6], 6.93.

With `COc1cc(-c2cccn2-c2ccc(C)c(C)c2)cc(OC)c1OC`, the pIC50 is under 5.00 in assay [1]; under 5.00 in assay [2]; under 5.00 in assay [3]; 5.70 in assay [4]; 5.40 in assay [5]; 5.45 in assay [6].

With `COc1ccc(-c2cccn2-c2cc(OC)c(OC)c(OC)c2)cc1`, the pIC50 was 5.72 in assay [1]; under 5.00 in assay [2]; 5.67 in assay [3]; 6.82 in assay [4]; 6.33 in assay [5]; 5.60 in assay [6].

Consider `COc1cc(-c2c[nH]cc2-c2ccc(OC(F)(F)F)cc2)cc(OC)c1OC`, for which the pIC50 in assay [1] is 5.28; in assay [2] it was 5.37; in assay [3], 5.26; in assay [4] it was 5.32; in assay [5], 5.23; in assay [6], 5.20.

With `COc1cc(-c2c[nH]cc2-c2ccc(C(F)(F)F)cc2)cc(OC)c1OC`, the pIC50 in assay [1] is 6.35; in assay [2] it was 6.39; in assay [3], 6.06; in assay [4], 6.46; in assay [5], 6.03; in assay [6], 5.87.

As to `COc1cc(-n2cccc2-c2ccc(C)cc2)cc(OC)c1OC`, the pIC50 is 5.49 in assay [1]; 5.02 in assay [2]; 5.41 in assay [3]; 6.57 in assay [4]; 6.46 in assay [5]; 5.80 in assay [8]. The negative logarithm of the IC50 (pIC50) in assay [6] was 5.61. In addition, the inhibition in assay [7] was determined as 60%.

`COc1cccc(-n2cccc2-c2cc(OC)c(OC)c(OC)c2)c1`: the pIC50 in assay [1] was under 5.00; in assay [2] it was under 5.00; in assay [3], under 5.00; in assay [4], 5.70; in assay [5], 5.51; in assay [6], 5.30.

Regarding `CCOc1ccc(-c2cccn2-c2cc(OC)c(OC)c(OC)c2)cc1Cl`, the pIC50 in assay [1] was 6.46; in assay [2], 5.08; in assay [3] it was 6.14; in assay [4] it was 7.00; in assay [5], 6.41; in assay [8], 5.89. The pIC50 in assay [6] is 5.53. In addition, the inhibition in assay [7] came to 68%.

Consider `COc1ccc(-c2cccn2-c2cc(OC)c(OC)c(OC)c2)cc1Cl`, for which the pIC50 in assay [1] was 5.01; in assay [2], under 5.00; in assay [3], under 5.00; in assay [4], 6.26; in assay [5] it was 5.49; in assay [6], 5.54.

For `COc1cc(-c2cccn2-c2cccc3ccccc23)cc(OC)c1OC`, the pIC50 in assay [1] was under 5.00; in assay [2] it was under 5.00; in assay [3], under 5.00; in assay [4] it was 5.15; in assay [5], under 5.00; in assay [6], 5.06.

Turning to `COc1cc(-n2cccc2-c2cc(C)c(OC)c(C)c2)cc(OC)c1OC`, the pIC50 in assay [1] is under 5.00; in assay [2] it was under 5.00; in assay [3], under 5.00; in assay [4] it was 5.10; in assay [5], under 5.00; in assay [6] it was 5.04.

For the compound `CCc1ccc(-n2cccc2-c2cc(OC)c(OC)c(OC)c2)cc1`, the pIC50 in assay [1] was under 5.00; in assay [2], under 5.00; in assay [3] it was 5.08; in assay [4], 5.88; in assay [5], 5.44; in assay [6], 5.37.

Regarding `COc1ccc(/C=C\c2cc(OC)c(OC)c(OC)c2)cc1O` [COMBRETASTATIN A4], the pIC50 is 8.30 in assay [4] and 8.70 in assay [6].

For `CCCOc1ccc(-c2c[nH]cc2-c2cc(OC)c(OC)c(OC)c2)cc1`, the pIC50 in assay [1] was 6.43; in assay [2], 6.17; in assay [3], 6.15; in assay [4] it was 6.04; in assay [5], 5.44; in assay [6] it was 5.37.

In the case of `COc1ccc(-c2c[nH]cc2-c2cc(OC)c(OC)c(OC)c2)cc1Cl`, the pIC50 in assay [1] is 6.53; in assay [2] it was 6.61; in assay [3], 6.55; in assay [4], 7.16; in assay [5], 6.75; in assay [6], 6.55.

On to `CCc1ccc(-c2c[nH]cc2-c2cc(OC)c(OC)c(OC)c2)cc1`, for which the pIC50 was 6.53 in assay [1]; 6.59 in assay [2]; 6.54 in assay [3]; 7.32 in assay [4]; 6.79 in assay [5]; 6.65 in assay [6].

As to `COCOc1ccc(-c2c[nH]cc2-c2cc(OC)c(OC)c(OC)c2)cc1`, the negative logarithm of the IC50 (pIC50) in assay [1] was under 5.00; in assay [2] it was 5.10; in assay [3], under 5.00; in assay [4], under 5.00; in assay [5], under 5.00; in assay [6], under 5.00.

Regarding `COc1cc(-c2cccn2-c2ccc(N(C)C)cc2)cc(OC)c1OC`, the pIC50 in assay [1] was 5.25; in assay [2], under 5.00; in assay [3], 5.15; in assay [4], 6.21; in assay [5] it was 5.58; in assay [6] it was 5.41.

Consider `COc1cc(-c2c[nH]cc2-c2cc3ccccc3s2)cc(OC)c1OC`, for which the pIC50 was 7.37 in assay [1]; 6.64 in assay [2]; 6.42 in assay [3]; 7.43 in assay [4]; 7.45 in assay [5]; 6.81 in assay [6].

`COc1cc(-c2cccn2-c2cc(OC)c(OC)c(OC)c2)ccc1C`: the pIC50 in assay [1] is under 5.00; in assay [2] it was under 5.00; in assay [3] it was under 5.00; in assay [4], 5.64; in assay [5], 5.44; in assay [6] it was 5.55.

Turning to `COc1cc(-c2c[nH]cc2-c2ccc3ccccc3c2)cc(OC)c1OC`, the pIC50 was 6.86 in assay [1]; 6.64 in assay [2]; 6.59 in assay [3]; 7.49 in assay [4]; 7.27 in assay [5]; 7.06 in assay [6].

As for `COc1cc(-n2cccc2-c2cc3ccccc3s2)cc(OC)c1OC`, the pIC50 in assay [1] is 6.02; in assay [2], under 5.00; in assay [3] it was 5.23; in assay [4], 6.54; in assay [5] it was 5.52; in assay [6], 5.53.

With `CCSc1ccc(-c2cccn2-c2cc(OC)c(OC)c(OC)c2)cc1`, the pIC50 in assay [1] was 5.41; in assay [2], under 5.00; in assay [3], 5.03; in assay [4], 5.81; in assay [5], 5.43; in assay [6] it was 5.33.
